Assays:
[1] = molecular target: T1, α1(Q242L)β3(Y284F) GABAAR (UniProt P28472+P62813, Q268L/Y309F); test: Two-electrode voltage clamp in Xenopus laevis oocytes, intersubunit + β3 intrasubunit mutant; format: cell-based; details: 3 μM 3α5αP, 1 mM GABA + 40 μM pentobarbital
T1 construct: expressed in transfected cells; host or cells: Xenopus laevis oocytes injected with cRNA
Protocol: (§1) The wild-type and mutant α1β3 GABAAR were expressed in oocytes from the African clawed frog (Xenopus laevis). Frogs were purchased from Xenopus 1 (Dexter, MI), and housed and cared for in a Washington University Animal Care Facility under the supervision of the Washington University Division of Comparative Medicine. Harvesting of oocytes was conducted under the Guide for the Care and Use of Laboratory Animals as adopted and promulgated by the National Institutes of Health. The animal protocol (No. 20180191) was approved by the Animal Studies Committee of Washington University in St. Louis. The oocytes were injected with a total of 12 ng cRNA. The ratio of cRNAs was 5:1 ratio (α1:β3) to minimize the expression of β3 homomeric receptors. Following injection, the oocytes were incubated in ND96 (96 mM NaCl, 2 mM KCl, 1.8 mM CaCl2, 1 mM MgCl2, 5 mM HEPES; pH 7.4) with supplements (2.5 mM Na pyruvate, 100 U/ml penicillin, 100 μg/ml streptomycin and 50 μg/ml gentamycin) at 16°C for 2 days prior to conducting electrophysiological recordings. The electrophysiological recordings were conducted at room temperature using standard two-electrode voltage clamp. The oocytes were clamped at −60 mV. The chamber (RC-1Z, Warner Instruments, Hamden, CT) was perfused with ND96 at 5–8 ml/min. […] Current traces were analyzed with Clampfit (Molecular Devices). […]

[2] = molecular target: α1(Q242L/N408A/Y411F)β3 GABAAR (UniProt P28472+P62813, N434A/Q268L/Y437F); test: Two-electrode voltage clamp in Xenopus laevis oocytes, intersubunit + α1 intrasubunit mutant; format: cell-based; set-up: expressed in transfected cells; host or cells: Xenopus laevis oocytes injected with cRNA; details: 3 μM 3α5αP, 1 mM GABA + 40 μM pentobarbital
Protocol: as §1

Compound: CC(=O)[C@H]1CC[C@H]2[C@@H]3CC[C@H]4C[C@H](O)CC[C@]4(C)[C@H]3CC[C@]12C [3α5αP, allopregnanolone]
- Inhibition of steady-state current, effect of β3 intrasubunit site mutation [1]: markedly reduced
- Effect on steady-state current [2]: significantly inhibited

From paper PMC7532004, “Site-specific effects of neurosteroids on GABAA receptor activation and desensitization” (eLife, 2020)
